Results published in US20130225508A1, “PEPTIDE CAPABLE OF BINDING TO IMMUNOGLOBULIN” (priority 2010, published 2013).

How the values were obtained:
[1] = tested on: monoclonal antibody cocktail-induced arthritis; assay: Mice monoclonal antibody cocktail-induced arthritis model; format: in vivo, Mice (BALB/c Cr Slc)
Protocol: 1-1 Mice (BALB/c Cr Slc (SPF)) were used to examine arthritis suppressing effects of peptides of the present invention on monoclonal antibody cocktail-induced arthritis. Mice were fed normal chow and allowed to acclimate for 6 days before used in experiments.
Arthritis was caused by intravenous administration of 2 mg/animal of an arthritis-inducing monoclonal antibody cocktail and three days later, intraperitoneal administration of 50 μg/animal of lipopolysaccharide (LPS). Peptides R1 and R9 each were intraperitoneally administered at a dose of 10 mg/kg once a day from the day following the LPS administration (day 4) to day 14. Peptide SP4 and the variant of peptide SP4 composed of the corresponding D-amino acids (except for glycine) each were intraperitoneally administered at a dose of 10 or 100 mg/kg once a day from the day following the LPS administration (day 4) to day 14. […] A control group was given physiological saline at 10 mL/kg once a day from day 4.
To forty 7-week-old mice, the arthritis-inducing monoclonal antibody cocktail was intravenously administered at a dose of 2 mg/animal on day 0, and LPS was intraperitoneally administered at a dose of 50 μg/animal on day 3.
[…] As a control, physiological saline was intraperitoneally administered once a day from day 4, and the volume of administration was 10 ml/kg. […] Needles ([…]; Terumo) and syringes (1.0-ml capacity; Terumo) were used for administration.
Observation of clinical score was performed on even days from day 0 to day 14 as follows. The total score for the extremities was set to a maximum of 12. Visual observation of swelling of the legs was performed.
0: normal joint 1: slight inflammation and redness 2: serious erythema and swelling over the whole limb and preventing the use of the limb 3: deformation of the limb or joint accompanied by ankylosis, joint stiffness, loss of function
Results of examinations are expressed by mean value±standard error and were analyzed using EXSAS (Version 7.1.6, Arm Systex Co., Ltd.). Clinical scores were subjected to Wilcoxon's test. Quantitative data, such as body weights and leg volumes, were subjected to Bartlett's test, followed by Dunnett's multiple comparison test if the variance was uniform or by Steel's multiple comparison test if the variance was not uniform. The level of significance was set at 5% on both sides.

[2] = tested on: TNF-α in plasma; assay: TNF-α in plasma of adjuvant arthritis rats (ELISA); format: in vivo, rat; details: day 21 post-adjuvant
Protocol: (§1) TNF-α and IL-1β in plasma were measured in a double-point method using the TNF-α ELISA kit (Lbis® TNF-α-rat) and the IL-1β ELISA kit (Quantikine® Rat IL-1β/IL-1F2).
(§2) On day 21 post-adjuvant, the animals were subjected to autopsy, and plasma was prepared to measure IL-1β and TIN-α concentrations in plasma. In all the groups for which measurements were made, the concentration of TNF-α was below the detection limit (8 pg/mL).

[3] = tested on: IL-1β in plasma; assay: IL-1β in plasma of adjuvant arthritis rats (ELISA); format: in vivo, rat; details: day 21 post-adjuvant
Protocol: as §1, §2

[4] = day 6, 0.15 mg/kg intraperitoneal once a day from day 4
[5] = day 14, 0.15 mg/kg intraperitoneal once a day from day 4
[6] = 0.15 mg/kg oral, pre-administered group

CN(Cc1cnc2nc(N)nc(N)c2n1)c1ccc(C(=O)N[C@@H](CCC(=O)O)C(=O)O)cc1 [Methotrexate]
hind-limb volume ([1]; day 0, 0.15 mg/kg intraperitoneal group): 0.216 cm^3
hind-limb volume [1, 4]: 0.381 cm^3
increasing rate of hind-limb volume (volume on day 0 = 100%) [1, 4]: 176.2%
hind-limb volume ([1]; day 8 (highest value), 0.15 mg/kg intraperitoneal once a day from day 4): 0.441 cm^3
increasing rate of hind-limb volume (volume on day 0 = 100%) ([1]; day 8 (highest), 0.15 mg/kg intraperitoneal once a day from day 4): 204.2%
clinical score ([1]; day 12, 0.15 mg/kg intraperitoneal once a day from day 4): 8.2±0.9
clinical score [1, 5]: 8.6±0.9
hind-limb volume [1, 5]: 0.356 cm^3
increasing rate of hind-limb volume (volume on day 0 = 100%) [1, 5]: 165.4%
Concentrations of TNF-α in plasma ([2]; 0.15 mg/kg oral from day 10): N.D (N.D.: below detection limit)
Concentrations of TNF-α in plasma [2, 6]: N.D (N.D.: below detection limit)
Concentrations of IL-1β in plasma ([3]; 0.15 mg/kg oral from day 10): 22.6 ± 11.3 pg/mL
Concentrations of IL-1β in plasma [3, 6]: 18.4 ± 4.2 pg/mL
